Results on two compounds are retold here after EP0998931A1, “REMEDIES FOR DRY EYE” (priority 1997, dated 1998).

The assay concerns TG-I m RNA. In words: Expression amounts of TG-I mRNA by RT-PCR in cultured corneal epithelial cells (G3PDH internal standard). The conditions noted are these: for inhibition at 1 µM: read-out: inhibition (of TG-I m RNA expression). It counts as cell-based, human. How it is done: Glyceraldehyde-3-phosphoric acid dehydrogenase (G3PDH) was used as an internal standard in consideration of scatter of template total RNA amounts.
Cultured SV40 immortalized human corneal epithelial cells (1 × 10^6 cells) were cultured in a culture medium (DMEM/F12) containing a test compound under a condition of 37°C and 5% CO2 for 72 hours. After culturing, total RNA was extracted according to the AGPC method. Then, RT-PCR was carried out using a primer which is specific for TG-I m RNA or G3PDH m RNA using a Takara RNA-PCR kit (AMV). PCR products were electrophoresed on 1% agarose gel, and bands were detected with a transilluminator. Cells cultured in a culture medium containing no test compound in the same manner were used as a control.
The expression amounts of TG-I m RNA were calculated according to the following equation 1 so that an expression amount in the control was 100. Expression amount = (B/A) × 100 [formula] • A: A band area of a TG-I amplified fragment on the basis of a band area of a G3PDH amplified fragment in the control • B: A band area of a TG-I amplified fragment on the basis of a band area of a G3PDH amplified fragment in the presence of the test compound

One may read the inhibition as the drop in the measured response relative to a control, in per cent.

Read-outs that look alike come from different tables or passages of the source.

In the case of `C=C1/C(=C\C=C2/CCC[C@]3(C)[C@@H]([C@H](C)CC[C@@H](O)C(C)C)CC[C@@H]23)C[C@@H](O)C[C@@H]1O` [1α , 24 (R)-Dihydroxyvitamin D3], the “inhibition of TG-I m RNA expression, dependence on concentration” value (10 nM, 100 nM and 1000 nM) is “concentration-dependent inhibition was observed”. For the same compound, the mrna remaining at 0.01 µM came out at 66% (Corneal epithelial cell, 10 nM test compound, 72 hours culture, SV40 immortalized human corneal epithelial cells, control = 100, read-out: Expression amount) and 66% (Homo sapiens, Corneal epithelial cell, 72 h, concentration of 10 nM, relative to control, read-out: expression amounts of TG-I m RNA in the corneal epithelial cells). For the same compound, the mrna remaining at 0.1 µM amounted to 39% (Corneal epithelial cell, 100 nM test compound, 72 hours culture, SV40 immortalized human corneal epithelial cells, control = 100, read-out: Expression amount) and 39% (Homo sapiens, Corneal epithelial cell, 72 h, concentration of 100 nM, relative to control, read-out: expression amounts of TG-I m RNA in the corneal epithelial cells). The mrna remaining at 1 µM amounted to 22% (Corneal epithelial cell, 1000 nM test compound, 72 hours culture, SV40 immortalized human corneal epithelial cells, control = 100, read-out: Expression amount) and 22% (Homo sapiens, Corneal epithelial cell, 72 h, concentration of 1000 nM, relative to control, read-out: expression amounts of TG-I m RNA in the corneal epithelial cells). Also, the inhibition at 0.01 µM (Homo sapiens, Corneal epithelial cell, 72 h, concentration of 10 nM) worked out at 34%. For the setting “Homo sapiens, Corneal epithelial cell, 72 h, concentration of 100 nM”, this compound showed an inhibition at 0.1 µM of 61%. Where the note is “Homo sapiens, Corneal epithelial cell, 72 h, concentration of 1000 nM”, the inhibition at 1 µM was determined as 78%.
Turning to `C=C1/C(=C\C=C2/CCC[C@]3(C)[C@@H]([C@H](C)CCCC(C)(C)O)CC[C@@H]23)C[C@@H](O)C[C@@H]1O` [1α , 25-Dihydroxyvitamin D3], the mrna remaining at 1 µM was 48% (Homo sapiens, Corneal epithelial cell, 72 h, read-out: Expression amount) and 48% (Homo sapiens, Corneal epithelial cell, 72 h, read-out: expression amounts of TG-I m RNA in the corneal epithelial cells). For the same compound, the inhibition at 1 µM (Homo sapiens, Corneal epithelial cell, 72 h) stood at 52%. Moreover, the “inhibitory effect relative to that of 1α , 24 (R)-dihydroxyvitamin D3” value (comparative compound at 1000 nM) is on record as “one tenth or less”.
